According to ChEMBL document CHEMBL1201862, “PubChem BioAssay data set” (2004):
Active and inactive are the calls of the source. Cut-off read from the data, not from the text of the source, for most assays here: actives have a measured EC50 and inactives only a lower limit.

How the values were obtained:
[1] = Fluorescence-based cell-based high throughput dose response assay for inhibitors of the interaction of nucleotide-binding oligomerization domain containing 2 (NOD2) and the receptor-interacting serine-threonine kinase 2 (RIPK2).; type: functional; conditions: Homo sapiens
[2] = molecular target: T1, High affinity choline transporter 1 (Homo sapiens, UniProt Q9GZV3); test: human choline transporter blockers, potency – cell-based, 10-point CRC, membrane potential dye, dose response (AID 588401); type: functional;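 note: membrane potential dye fluorescence of choline-evoked depolarization via CHT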
T1 sequence (Q9GZV3 whole entry): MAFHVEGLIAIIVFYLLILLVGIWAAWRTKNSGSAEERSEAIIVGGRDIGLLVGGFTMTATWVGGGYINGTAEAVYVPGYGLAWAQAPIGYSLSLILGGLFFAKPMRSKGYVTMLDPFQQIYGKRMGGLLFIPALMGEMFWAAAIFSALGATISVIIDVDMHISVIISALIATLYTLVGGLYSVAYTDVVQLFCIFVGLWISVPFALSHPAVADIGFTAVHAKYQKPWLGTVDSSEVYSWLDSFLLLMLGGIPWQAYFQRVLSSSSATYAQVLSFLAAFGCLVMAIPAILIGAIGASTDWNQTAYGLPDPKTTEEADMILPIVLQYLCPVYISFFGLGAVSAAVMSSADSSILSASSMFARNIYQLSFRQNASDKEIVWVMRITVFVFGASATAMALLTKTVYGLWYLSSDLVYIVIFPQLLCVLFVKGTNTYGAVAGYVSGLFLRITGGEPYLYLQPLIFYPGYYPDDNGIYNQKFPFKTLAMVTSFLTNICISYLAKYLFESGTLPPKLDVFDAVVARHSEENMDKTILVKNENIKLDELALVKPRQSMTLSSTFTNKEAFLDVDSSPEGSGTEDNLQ

[3] = DRD fibroblast viability loss – cell-based, non-viral oncogenic, luminescence, dose response (AID 1934); type: functional; conditions: Homo sapiens
Large T antigen = Large T antigen (Simian virus 40, UniProt P03070); type: functional, Betapolyomavirus macacae;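 note: Confirmatory-stage PubChem screen for compounds that inhibit SV40 T antigen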
Large T antigen, sequence (P03070 whole entry): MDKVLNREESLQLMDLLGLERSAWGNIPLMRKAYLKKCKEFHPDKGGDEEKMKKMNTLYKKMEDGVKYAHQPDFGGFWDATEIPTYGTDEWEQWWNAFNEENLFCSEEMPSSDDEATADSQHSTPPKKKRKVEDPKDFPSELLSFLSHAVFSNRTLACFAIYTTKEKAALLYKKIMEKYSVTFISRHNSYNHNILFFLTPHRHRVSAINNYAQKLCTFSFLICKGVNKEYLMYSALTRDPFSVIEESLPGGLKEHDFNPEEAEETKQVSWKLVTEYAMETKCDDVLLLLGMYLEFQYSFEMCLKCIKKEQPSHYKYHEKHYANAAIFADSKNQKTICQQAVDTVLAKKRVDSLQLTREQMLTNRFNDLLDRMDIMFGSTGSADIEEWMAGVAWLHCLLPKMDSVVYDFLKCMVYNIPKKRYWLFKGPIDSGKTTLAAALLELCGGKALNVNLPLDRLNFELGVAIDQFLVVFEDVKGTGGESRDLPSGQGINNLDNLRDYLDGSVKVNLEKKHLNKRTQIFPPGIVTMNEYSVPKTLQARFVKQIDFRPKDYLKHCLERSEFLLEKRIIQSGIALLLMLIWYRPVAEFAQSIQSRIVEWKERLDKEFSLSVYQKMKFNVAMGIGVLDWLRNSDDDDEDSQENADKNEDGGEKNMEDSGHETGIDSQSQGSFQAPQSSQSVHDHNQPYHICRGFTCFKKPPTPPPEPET

[4] = Trypanosoma cruzi growth suppression in host cells – NIH3T3 host cells, beta-gal luminescence, confirmation (AID 2044); type: functional, cell-based;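 note: intracellular parasites grown in NIH/3T3 mouse fibroblasts as host cells; luminescent beta-galactosidase reporter signal from transgenic T. cruzi replicating inside host cells; inhibitors lower the luminescence signal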
[5] = NIH3T3 cell viability loss – ATP luminescence, mouse fibroblasts, counter-screen, dose response (AID 2010); type: functional, cell-based;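 note: cells exposed to compound for about 90 hours before reading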
[6] = system: Streptococcus sp. 'group A'; test: Streptococcus pyogenes SK(-)GAS viability under kanamycin – luminescence, BacTiterGlo, confirmation, counter-screen for streptokinase expression inhibitor project, dose response (AID 1900); type: functional, organism-based
Beta Lactamase = Beta Lactamase (Pseudomonas aeruginosa, UniProt Q932Y6); test: BLA reporter interference, concentration series – BLA reporter cells, FRET fluorescence, artefact control for TLR9-MyD88 binding inhibitor project, dose response (AID 588341); type: cell-based;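 note: cell based assay in CHO-K1 cells stably expressing beta-lactamase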
Beta Lactamase, sequence (Q932Y6 whole entry): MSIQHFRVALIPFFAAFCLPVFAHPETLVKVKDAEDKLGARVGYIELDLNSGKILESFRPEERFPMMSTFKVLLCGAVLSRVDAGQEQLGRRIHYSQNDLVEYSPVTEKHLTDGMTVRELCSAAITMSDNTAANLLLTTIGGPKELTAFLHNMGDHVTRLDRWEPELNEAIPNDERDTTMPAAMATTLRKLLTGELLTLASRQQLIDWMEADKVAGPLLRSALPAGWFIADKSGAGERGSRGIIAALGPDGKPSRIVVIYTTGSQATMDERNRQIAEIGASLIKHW

[7] = molecular target: T2, Heat shock factor protein 1 (Mus musculus, UniProt P38532); test: enhancement of HSF1-driven luciferase signal – cell-based, NIH3T3, luminescence, dose retest, confirmation (AID 435004); type: functional;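 note: stress induced by proteasome inhibitor MG132 added 30 min after compound; luciferase reporter driven by HSF1 response element in NIH3T3 cells; actives raise luminescence as potentiators of the MG132 stress response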
T2 sequence (P38532 whole entry): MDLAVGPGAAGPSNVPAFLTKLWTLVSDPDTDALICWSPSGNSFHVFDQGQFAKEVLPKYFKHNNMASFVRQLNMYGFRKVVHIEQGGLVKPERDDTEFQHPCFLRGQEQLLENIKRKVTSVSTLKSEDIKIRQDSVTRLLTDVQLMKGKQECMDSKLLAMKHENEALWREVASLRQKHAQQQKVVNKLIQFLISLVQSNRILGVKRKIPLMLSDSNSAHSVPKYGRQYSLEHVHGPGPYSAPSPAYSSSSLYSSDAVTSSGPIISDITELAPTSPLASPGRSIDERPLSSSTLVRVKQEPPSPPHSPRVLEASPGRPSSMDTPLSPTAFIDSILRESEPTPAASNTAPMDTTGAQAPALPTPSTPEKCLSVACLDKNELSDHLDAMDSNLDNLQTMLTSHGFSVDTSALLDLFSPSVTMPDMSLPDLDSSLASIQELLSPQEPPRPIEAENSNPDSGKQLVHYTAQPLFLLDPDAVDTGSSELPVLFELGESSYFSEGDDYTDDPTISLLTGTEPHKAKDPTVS

CHO = CHO cell viability loss, potency – luminescence, cytotoxicity control for TLR9-MyD88 binding inhibitor project, dose response (AID 588339); type: functional, cell-based, hamster; conditions: Cricetulus griseus;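 note: CHO cells stably coexpressing TLR9 and MyD88 fusions from primary screen; compound exposure lasted 48 hours before viability readout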
Streptokinase A = molecular target: T3, Streptokinase A (Streptococcus pyogenes serotype M1, UniProt P10520); test: viability-normalized secreted streptokinase activity reduction – plasminogen activation absorbance, OD405, dose response (AID 1914); type: functional, Streptococcus pyogenes M1 GAS;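 note: secreted streptokinase activity via plasminogen activation per viability signal from cell pellet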
T3 sequence (P10520 whole entry): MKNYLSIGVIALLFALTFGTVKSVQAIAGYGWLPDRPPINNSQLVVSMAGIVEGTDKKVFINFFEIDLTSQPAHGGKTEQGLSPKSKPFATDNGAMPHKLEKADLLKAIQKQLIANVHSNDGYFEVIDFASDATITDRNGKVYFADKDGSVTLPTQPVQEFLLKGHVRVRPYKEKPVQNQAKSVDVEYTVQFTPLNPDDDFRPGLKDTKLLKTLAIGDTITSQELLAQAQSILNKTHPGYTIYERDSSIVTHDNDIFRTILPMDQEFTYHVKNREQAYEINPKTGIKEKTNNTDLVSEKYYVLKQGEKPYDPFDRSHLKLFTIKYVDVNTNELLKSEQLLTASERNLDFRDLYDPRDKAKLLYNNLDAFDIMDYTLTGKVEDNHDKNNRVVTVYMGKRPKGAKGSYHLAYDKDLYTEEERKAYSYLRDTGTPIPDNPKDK

[8] = molecular target: T4, Type-1 angiotensin II receptor (Homo sapiens, UniProt P30556); test: antagonism of angiotensin II type 1 receptor – cell-based, uHTS hits, selectivity assay for APJ receptor antagonist project, dose response (AID 463214); type: functional;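 note: antagonist potency against angiotensin II stimulated AT1 response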
T4 sequence (P30556 whole entry): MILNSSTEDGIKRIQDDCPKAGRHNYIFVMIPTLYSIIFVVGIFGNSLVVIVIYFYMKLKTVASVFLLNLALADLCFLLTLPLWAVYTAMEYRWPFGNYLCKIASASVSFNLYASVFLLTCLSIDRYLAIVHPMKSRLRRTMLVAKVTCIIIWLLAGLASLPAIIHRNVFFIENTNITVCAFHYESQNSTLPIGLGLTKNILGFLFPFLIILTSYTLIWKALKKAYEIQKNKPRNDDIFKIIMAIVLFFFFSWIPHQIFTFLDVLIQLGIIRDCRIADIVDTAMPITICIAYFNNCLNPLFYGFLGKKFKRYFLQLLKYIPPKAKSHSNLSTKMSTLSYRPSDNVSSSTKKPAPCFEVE

[9] = molecular target: T1, High affinity choline transporter 1; test: human choline transporter blockers, potency – cell-based, 5-point CRC, membrane potential dye, dose response (AID 504840); type: functional
Streptococcus = test: GAS UMAA2166 growth inhibition – luminescence, BacTiterGlo, counter-screen for streptokinase expression inhibitor project, dose response (AID 1915); type: functional, organism-based;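 note: potency for reduction of bacterial viability or growth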
BJ [10] = test: BJ-TERT fibroblast viability loss – cell-based, RAS-independent, luminescence, dose response (AID 1933); type: functional; conditions: Homo sapiens
Beta-galactosidase = Beta-galactosidase (Escherichia coli, UniProt Q8VNN2); test: PubChem AID 485352; type: functional
Beta-galactosidase, sequence (Q8VNN2 whole entry): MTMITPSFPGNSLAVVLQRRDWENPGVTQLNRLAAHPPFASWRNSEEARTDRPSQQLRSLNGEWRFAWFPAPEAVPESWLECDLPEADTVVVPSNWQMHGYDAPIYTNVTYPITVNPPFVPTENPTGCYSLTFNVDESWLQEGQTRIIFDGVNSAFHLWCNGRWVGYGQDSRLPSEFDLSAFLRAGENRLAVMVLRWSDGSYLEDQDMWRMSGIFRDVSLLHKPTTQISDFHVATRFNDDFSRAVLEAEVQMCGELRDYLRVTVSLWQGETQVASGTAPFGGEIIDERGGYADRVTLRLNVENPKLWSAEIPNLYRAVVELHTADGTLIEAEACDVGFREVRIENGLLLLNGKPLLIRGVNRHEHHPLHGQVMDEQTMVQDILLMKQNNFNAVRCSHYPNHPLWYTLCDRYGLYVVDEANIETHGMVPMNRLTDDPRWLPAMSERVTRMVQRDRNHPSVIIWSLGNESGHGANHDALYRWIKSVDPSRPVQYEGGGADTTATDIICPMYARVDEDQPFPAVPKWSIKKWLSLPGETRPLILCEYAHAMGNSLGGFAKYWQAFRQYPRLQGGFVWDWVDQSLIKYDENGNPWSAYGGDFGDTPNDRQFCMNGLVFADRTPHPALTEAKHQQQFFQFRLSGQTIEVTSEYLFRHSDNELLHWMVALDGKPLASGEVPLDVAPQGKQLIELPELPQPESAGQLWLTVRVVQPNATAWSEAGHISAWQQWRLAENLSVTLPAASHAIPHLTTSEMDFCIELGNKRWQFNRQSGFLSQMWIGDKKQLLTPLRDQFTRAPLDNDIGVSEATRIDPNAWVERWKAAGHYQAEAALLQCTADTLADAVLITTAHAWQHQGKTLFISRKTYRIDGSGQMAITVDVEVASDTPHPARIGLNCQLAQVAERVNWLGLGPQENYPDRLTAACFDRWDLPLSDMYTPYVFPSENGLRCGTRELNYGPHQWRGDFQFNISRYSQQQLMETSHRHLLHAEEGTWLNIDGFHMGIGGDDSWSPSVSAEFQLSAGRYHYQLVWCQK

BJ [11] = test: cells; type: functional, cell-based; conditions: Homo sapiens
BJ [12] = test: BJ-TERT-LT-ST fibroblast viability loss – cell-based, RAS-independent, luminescence, dose response (AID 1935); type: functional; conditions: Homo sapiens;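 note: BJ fibroblasts immortalized with TERT plus LT and ST oncogenes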

**Q.** Which IC50 [1] does the source give for `CCn1nc(C)cc1-c1nnc(Sc2ncc([N+](=O)[O-])s2)n1C` here?
**A.** 0.802 µM (active)

**Q.** What about the IC50 [2] of the same molecule?
**A.** 3.76 µM (active)

**Q.** What about the EC50 [3] of the same molecule?
**A.** 5.37 µM (active)

**Q.** What about the IC50 (Large T antigen) of the same molecule?
**A.** 17.6 µM (active)

**Q.** And the EC50 [4]?
**A.** 0.759 µM (active)

**Q.** And the EC50 [5]?
**A.** 3.07 µM (active)

**Q.** What about the EC50 [6] of the same molecule?
**A.** 7.07 µM (active)

**Q.** What about the IC50 (Beta Lactamase) of the same molecule?
**A.** 46 µM (inactive)

**Q.** And the EC50 [7]?
**A.** 2.9 µM (inconclusive)

**Q.** And the IC50 (CHO)?
**A.** 1.08 µM (active)

**Q.** And the EC50 (Streptokinase A)?
**A.** > 150 µM (not active)

**Q.** And the IC50 [8]?
**A.** 5.36 µM (active)

**Q.** And the IC50 [9]?
**A.** 8.13 µM (active)

**Q.** And the EC50 (Streptococcus)?
**A.** 12.4 µM (active)

**Q.** What about the EC50 (BJ [10]) of the same molecule?
**A.** 2.09 µM (active)

**Q.** And the EC50 (Beta-galactosidase)?
**A.** > 40 µM (inactive)

**Q.** What about the EC50 (BJ [11]) of the same molecule?
**A.** 7.27 µM (active)

**Q.** What about the EC50 (BJ [12]) of the same molecule?
**A.** 3.46 µM (inconclusive)
